Data: patent US20260209249A1, “NOVEL TRICYCLIC COMPOUND AS KRAS G12D INHIBITOR, AND USE THEREOF” (SK Biopharmaceuticals Co., priority 2022, published 2026)
Blank lines part the entries; values can stand above or below the compound they belong to.

Key:
[1] = target: T1, GppNHp-KRAS G12D mutant protein (Homo sapiens, UniProt P01116, G12D); experiment: Differential scanning fluorimetry (DSF) binding affinity to GppNHp-KRAS G12D mutant protein; conditions: DSF thermal shift, 10 μM compound, 4 μg KRAS protein, 50 mM HEPES (pH 7.5)
T1 construct: purchased Daegu Gyeongbuk Medical Innovation Foundation (DGMIF), made to order
Outline: (§1)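 Thermal shift ΔTm was measured at 10 μM compound over a 25–99 °C ramp (0.05 °C/s), read at 580 nm ex/623 nm em with SYPRO Orange (2×). The protein (4 μg) was preincubated with compound for 30 min at room temperature, in 50 mM HEPES pH 7.5 for GppNHp-KRAS G12D or in kit buffer for GDP-KRAS G12D.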

[2] = target: T2, GDP-KRAS G12D mutant protein (Homo sapiens, UniProt P01116, G12D); experiment: Differential scanning fluorimetry (DSF) binding affinity to GDP-KRAS G12D mutant protein; conditions: DSF thermal shift, 10 μM compound, 4 μg KRAS protein
T2 construct: purchased Daegu Gyeongbuk Medical Innovation Foundation (DGMIF), made to order
Outline: as §1

[3] = system: KRAS G12D mutant pancreatic cancer cell line AsPC-1; experiment: Cell viability assay using KRAS G12D mutant cells (AsPC-1, 3D culture, celltiter-glo 3D); type: cell-based; conditions: Homo sapiens, ASPC1, 5th day after compound treatment
Protocol: Test Example 3: Cell Viability Assay Using KRAS G12D Mutant Cells
The KRAS G12D mutant pancreatic cancer cell line AsPC-1 was obtained from the Korean Cell Line Bank (KCLB) and maintained in 100-mm dishes or T75 (75 cm^2) flasks using RPM11640+10% fetal bovine serum (FBS)+1% Penicillin-Streptomycin medium. The cells were cultured at 37° C. with 5% CO2. The number of viable cells was counted using Countess (Invitrogen).
When AsPC-1 cells reached 85-100% confluence in the flask, the cells were harvested using 1× trypsin/EDTA solution, and seeded into a 96-well plate for 3D culture at 1000 cells/100 μL/well. The next day, the compounds were diluted ⅕ with DMSO from 10 μM or 50 μM to 0.0001 μM or 0.0006 μM and treated 1:1 (v/v) in the plate where the cells were seeded.
Cell culture was terminated on the 5th day after compound treatment, and cell viability at each concentration was measured using the celltiter-glo 3D cell viability assay kit.
Cell viability assays were normalized to 100% for the DMSO-treated group and expressed as a percentage of the number of viable cells when treated with the compound.
Cell viability %=(average RLU of group treated with test substance−average RLU of untreated group)/(average RLU of group treated with DMSO−average RLU of untreated group)×100
The data were modeled using GraphPad Prism 9 (GraphPad Software) by applying a nonlinear regression curve fit with a four-parameter sigmoidal dose-response curve to determine cell viability as a function of compound concentration. The 50% inhibitory concentration (IC50) corresponds to the concentration at which the curve intersects the midpoint of cell viability. The results of the inhibitory effect of the compounds according to one embodiment of the present application on the viability of KRAS G12D mutant cells are presented in Table 4.

[4] = system: ERK phosphorylation (pERK) induced by KRAS G12D mutation; experiment: Inhibitory activity against ERK phosphorylation (pERK) induced by KRAS G12D mutation, immunofluorescence assay in AsPC-1 cells; type: cell-based; conditions: Homo sapiens, ASPC1, 3 h drug treatment, pERK (Thr202/Tyr204) signal normalized to DAPI
Excerpt: Test Example 2: Measurement of Inhibitory Activity Against ERK Phosphorylation (pERK) Induced by KRAS G12D Mutation (Immunofluorescence Assay)
Immunofluorescence is a method used to detect specific substances within cells or tissues through antigen-antibody interactions, and allows for the identification of the presence or absence of specific proteins by using antibodies labeled with various fluorescent dyes. After a primary antibody that recognizes a specific protein selectively binds to the epitope, a fluorescent antibody (secondary antibody) is bound to the primary antibody.
It was confirmed as follows that the compounds according to an embodiment of the present application inhibit phosphorylation of extracellular signal-regulated kinases (Phospho-ERK, pERK) induced by KRAS G12D mutation.
AsPC-1 cells were seeded at a density of 10,000 cells/well in RPMI-1640 medium containing 10% FBS and 1% Penicillin-Streptomycin in 384-well plates (Perkinelmer, #6057300) and allowed to attach for 16 h. After the cells attached to the plate, the cells were treated with drugs at a maximum concentration of 10 μM with a 3-fold serial dilution. After 3 h of drug treatment, the medium was removed and the cells were treated with 50 μL of 4% formaldehyde (Biosesang, #PC2031-050-00) for 20 min and washed three times with 50 μL of phosphate buffered saline (PBS).
50 μL of PBS containing 0.3% Triton X-100 (Sigma, #T8787-250 mL) was added and reacted for 20 minutes to allow antibody penetration into cells, and then the plate was washed three times with 50 μL of PBS. To block nonspecific binding of antibodies to the plate, 50 μL of PBS containing 2% BSA (sigma, #A7906-500G) and 0.01% Tween-20 (Sigma, #P1379-500 mL) (hereinafter referred to as PBS-T) was added, and reacted at room temperature for 2 hours.
To detect pERK, the primary antibody (cell signaling, #9101) was diluted 1:500 in PBS-T containing 2% BSA, 50 μL was added, and the plate was stored in a refrigerator at 4° C. for 16 hours to react, followed by washing three times with 50 μL of PBS-T. To visualize the primary antibody, the secondary antibody, i.e., anti-rabbit-Alexa Fluor 488 (ThermoFisher, #A11008), was diluted 1:1000 in PBS-T containing 2% BSA, 50 μL was added, and after reaction at room temperature for 1 hour, the plate was washed three times with 50 μL of PBS-T. Next, to visualize the nuclei of cells, DAPI (Thermofisher, #62248, 1 mg/mL) was diluted 1:1000 in PBS-T, 50 μL each was added, reacted at room temperature for 10 minutes, and washed three times with 50 μL of PBS-T. 50 μL of PBS-T was added to each well, and the plate was read for fluorescence value using HCS equipment (MOLECULAR DEVICES/ImageXpress Micro).
Data analysis was performed by normalizing the pERK (Thr202/Tyr204) signal to the DAPI signal and calculating the percentage relative to the DMSO as a control. The IC50 value was determined by fitting a four-parameter dose-response curve using the GraphPad Prism software (version 8.4.3), and interpolating the concentration at which 50% inhibition occurred. The results of calculating the inhibitory efficacy of the compounds according to one embodiment of the present application against KRAS G12D mutation-induced pERK activity are shown in Table 3.

Structure (SMILES): C#Cc1c(F)ccc2cc(N)cc(-c3c(F)c4nc(OC[C@@]56CCCN5CC(=C(F)F)C6)nc(N5C[C@H]6CC[C@@H](C5)N6)c4c4cn(C)nc34)c12 [Example 99, 4-(9-((1R,5S)-3,8-diazabicyclo[3.2.1]octan-3-yl)-7-(((S)-2-(difluoromethylene)tetrahydro-1H-pyrrolizin-7a(5H)-yl)methoxy)-5-fluoro-2-methyl-2H-pyrazolo[4,3-f]quinazolin-4-yl)-5-ethynyl-6-fluoronaphthalen-2-amine]
GppNHp-KRAS G12D (ΔTmD, ° C.) [1]: 7.27 °C | GDP-KRAS G12D (ΔTmD, ° C.) [2]: 11.13 °C | IC50 [3]: 27 nM

Structure (SMILES): Cn1cc2c(n1)c(-c1cc(O)cc3ccccc13)cc1nc(OC[C@@]34CCCN3C[C@H](F)C4)nc(N3C[C@H]4CC[C@@H](C3)N4)c12 [Example 68, 4-(9-((1R,5S)-3,8-diazabicyclo[3.2.1]octan-3-yl)-7-(((2R,7aS)-2-fluorotetrahydro-1H-pyrrolizin-7a(5H)-yl)methoxy)-2-methyl-2H-pyrazolo[4,3-f]quinazolin-4-yl)naphthalen-2-ol]
GppNHp-KRAS G12D (ΔTmD, ° C.) [1]: 1.90 °C | IC50 [4]: 9020 nM | GDP-KRAS G12D (ΔTmD, ° C.) [2]: 5.75 °C

Structure (SMILES): C#Cc1c(F)ccc2cc(O)cc(-c3cc4nc(OCC5(CN6C[C@H]7C[C@@H]6CO7)CC5)nc(N5C[C@H]6CC[C@@H](C5)N6)c4n4ccnc34)c12 [Example 10, 4-(3-((1-(((1 R,4R)-2-oxa-5-azabicyclo[2.2.1]heptan-5-yl)methyl)cyclopropyl)methoxy)-1-((1 R,5S)-3,8-diazabicyclo[3.2.1]octan-3-yl)imidazo[1′,2′:1,6]pyrido[3,2-d]pyrimidin-6-yl)-5-ethynyl-6-fluoronaphthalen-2-ol]
GppNHp-KRAS G12D (ΔTmD, ° C.) [1]: 2.79 °C | IC50 [4]: 2100 nM | GDP-KRAS G12D (ΔTmD, ° C.) [2]: 9.00 °C

Structure (SMILES): C#Cc1c(F)ccc2cc(O)cc(-c3cc4nc(OCC5(CN6CCCC6)CC5)nc(N5[C@@H]6CC[C@H]5CNC6)c4n4ccnc34)c12 [Example 17, 4-(1-((1R,5S)-3,8-diazabicyclo[3.2.1]octan-8-yl)-3-((1-(pyrrolidin-1-ylmethyl)cyclopropyl)methoxy)imidazo[1′,2′:1,6]pyrido[3,2-d]pyrimidin-6-yl)-5-ethynyl-6-fluoronaphthalen-2-ol]
GppNHp-KRAS G12D (ΔTmD, ° C.) [1]: 4.71 °C | IC50 [4]: 1170 nM | GDP-KRAS G12D (ΔTmD, ° C.) [2]: 9.45 °C

GppNHp-KRAS G12D (ΔTmD, ° C.) [1]: 1.60 °C | GDP-KRAS G12D (ΔTmD, ° C.) [2]: 4.27 °C
Structure (SMILES): CN(C)C1(CNc2nc(OC[C@@]34CCCN3C[C@H](F)C4)nc3cc(-c4cc(O)cc5ccc(F)c(F)c45)c4nccn4c23)CCC1 [Example 5, 4-(1-(((1-(dimethylamino)cyclobutyl)methyl)amino)-3-(((2R,7aS)-2-fluorotetrahydro-1H-pyrrolizin-7a(5H)-yl)methoxy)imidazo[1′,2′:1,6]pyrido[3,2-d]pyrimidin-6-yl)-5,6-difluoronaphthalen-2-ol]
IC50 [4]: 953 nM

Structure (SMILES): CCc1c(F)ccc2cc(O)cc(-c3c(F)c4nc(OC[C@@]56CCCN5CC(=C(F)F)C6)nc(N5C[C@H]6CC[C@@H](C5)N6)c4c4cn(C)nc34)c12 [Example 97, 4-(9-((1R,5S)-3,8-diazabicyclo[3.2.1]octan-3-yl)-7-(((S)-2-(difluoromethylene)tetrahydro-1H-pyrrolizin-7a(5H)-yl)methoxy)-5-fluoro-2-methyl-2H-pyrazolo[4,3-f]quinazolin-4-yl)-5-ethyl-6-fluoronaphthalen-2-ol]
GppNHp-KRAS G12D (ΔTmD, ° C.) [1]: 8.42 °C | GDP-KRAS G12D (ΔTmD, ° C.) [2]: 14.20 °C | IC50 [3]: 7 nM

Structure (SMILES): Cn1cc2c(n1)c(-c1cc(O)cc3ccc(F)c(F)c13)cc1nc(OC[C@@]34CCCN3C[C@H](F)C4)nc(N3C[C@H]4CC[C@@H](C3)N4)c12 [Example 70, 4-(9-((1R,5S)-3,8-diazabicyclo[3.2.1]octan-3-yl)-7-(((2R,7aS)-2-fluorotetrahydro-1H-pyrrolizin-7a(5H)-yl)methoxy)-2-methyl-2H-pyrazolo[4,3-f]quinazolin-4-yl)-5,6-difluoronaphthalen-2-ol]
GppNHp-KRAS G12D (ΔTmD, ° C.) [1]: 3.38 °C | IC50 [4]: 735 nM | GDP-KRAS G12D (ΔTmD, ° C.) [2]: 6.34 °C

Structure (SMILES): Cc1cc2c(o1)c(-c1ccc(F)c3sc(N)c(C#N)c13)c(F)c1nc(OC[C@@]34CCCN3C/C(=C\F)C4)nc(N3C[C@H]4CC[C@@H](C3)N4)c12 [Example 63, 4-(1-((1R,5S)-3,8-diazabicyclo[3.2.1]octan-3-yl)-5-fluoro-3-(((S,Z)-2-(fluoromethylene)tetrahydro-1H-pyrrolizin-7a(5H)-yl)methoxy)-8-methylfuro[3,2-f]quinazolin-6-yl)-2-amino-7-fluorobenzo[b]thiophene-3-carbonitrile]
GppNHp-KRAS G12D (ΔTmD, ° C.) [1]: 9.02 °C | IC50 [4]: 532 nM | GDP-KRAS G12D (ΔTmD, ° C.) [2]: 8.72 °C

Structure (SMILES): Cc1cc2c(o1)c(-c1ccc(F)c3sc(N)c(C#N)c13)c(F)c1nc(OC[C@@]34CCCN3C[C@H](F)C4)nc(N3C[C@H]4CC[C@@H](C3)N4)c12 [Example 62, 4-(1-((1R,5S)-3,8-diazabicyclo[3.2.1]octan-3-yl)-5-fluoro-3-(((2R,7aS)-2-fluorotetrahydro-1H-pyrrolizin-7a(5H)-yl)methoxy)-8-methylfuro[3,2-f]quinazolin-6-yl)-2-amino-7-fluorobenzo[b]thiophene-3-carbonitrile]
GppNHp-KRAS G12D (ΔTmD, ° C.) [1]: 8.57 °C | IC50 [4]: 631 nM | GDP-KRAS G12D (ΔTmD, ° C.) [2]: 9.01 °C

Structure (SMILES): C#Cc1c(F)ccc2cc(O)cc(-c3cc4nc(OC[C@]56CCCN5CC(=C)C6)nc(N5[C@@H]6CC[C@H]5CNC6)c4n4ccnc34)c12 [Example 21, 4-(1-((1R,5S)-3,8-diazabicyclo[3.2.1]octan-8-yl)-3-(((R)-2-methylenetetrahydro-1H-pyrrolizin-7a(5H)-yl)methoxy)imidazo[1′,2′:1,6]pyrido[3,2-d]pyrimidin-6-yl)-5-ethynyl-6-fluoronaphthalen-2-ol]
GppNHp-KRAS G12D (ΔTmD, ° C.) [1]: 4.72 °C | IC50 [4]: 196 nM | GDP-KRAS G12D (ΔTmD, ° C.) [2]: 8.13 °C
